# Data taken from US10865193B2, “Pyridone derivatives for the treatment of viral infections and further diseases” (JANSSEN SCIENCES IRELAND UNLIMITED COMPANY, priority 2013, dated 2020).
# Key:
# Type in all cases: cell-based
# human TLR7 = target: T1, human TLR7 (Homo sapiens, UniProt Q9NYK1); assay: TLR7 cellular reporter assay (HEK293, NFκB-luc); conditions: HEK293 transiently transfected with TLR7 and NFκB-luc; 6 hours incubation; lowest effective concentration
# T1 construct: expressed in transfected cells; host or cells: HEK293 (transient transfection)
# T1 sequence (Q9NYK1 27-1049): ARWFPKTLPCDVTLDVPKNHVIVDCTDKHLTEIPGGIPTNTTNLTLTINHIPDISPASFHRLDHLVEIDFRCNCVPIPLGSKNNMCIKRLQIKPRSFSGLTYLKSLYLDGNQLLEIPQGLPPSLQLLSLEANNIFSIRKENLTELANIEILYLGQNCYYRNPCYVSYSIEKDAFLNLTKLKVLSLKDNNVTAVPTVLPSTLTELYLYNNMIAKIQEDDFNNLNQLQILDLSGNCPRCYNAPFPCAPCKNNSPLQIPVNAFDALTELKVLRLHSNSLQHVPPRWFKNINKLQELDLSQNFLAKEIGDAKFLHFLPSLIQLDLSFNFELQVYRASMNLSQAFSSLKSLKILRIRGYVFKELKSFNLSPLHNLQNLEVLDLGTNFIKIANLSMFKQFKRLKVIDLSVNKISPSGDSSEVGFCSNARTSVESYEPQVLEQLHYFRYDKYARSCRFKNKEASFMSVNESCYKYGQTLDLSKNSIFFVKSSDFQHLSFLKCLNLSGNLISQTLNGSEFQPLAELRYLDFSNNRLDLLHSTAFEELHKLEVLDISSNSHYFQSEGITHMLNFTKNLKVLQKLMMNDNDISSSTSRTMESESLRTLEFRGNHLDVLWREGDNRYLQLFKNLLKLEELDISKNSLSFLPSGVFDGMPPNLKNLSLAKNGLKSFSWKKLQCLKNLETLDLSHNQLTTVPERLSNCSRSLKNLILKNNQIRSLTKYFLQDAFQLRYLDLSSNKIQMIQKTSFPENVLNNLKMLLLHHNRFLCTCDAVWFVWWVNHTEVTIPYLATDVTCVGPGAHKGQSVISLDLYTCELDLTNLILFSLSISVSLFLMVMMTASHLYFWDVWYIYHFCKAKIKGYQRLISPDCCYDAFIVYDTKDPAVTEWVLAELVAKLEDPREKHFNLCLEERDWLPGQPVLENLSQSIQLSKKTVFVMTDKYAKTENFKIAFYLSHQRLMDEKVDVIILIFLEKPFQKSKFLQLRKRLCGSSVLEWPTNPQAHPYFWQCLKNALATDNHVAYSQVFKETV
# Protocol: (§1) The ability of compounds to activate human TLR7 and/or TLR8 was assessed in a cellular reporter assay using HEK293 cells transiently transfected with a TLR7 or TLR8 expression vector and NFκB-luc reporter construct.
# (§2) Briefly, HEK293 cells were grown in culture medium (DMEM supplemented with 10% FCS and 2 mM Glutamine). For transfection of cells in 15 cm dishes, cells were detached with Trypsin-EDTA, transfected with a mix of CMV-TLR7 or TLR8 plasmid (1700 ng), NFκB-luc plasmid (850 ng) and a transfection reagent and incubated for 48 h at 37° C. in a humidified 5% CO2 atmosphere. Transfected cells were then washed in PBS, detached with Trypsin-EDTA and resuspended in medium to a density of 1.25×10^5 cells/mL. Forty microliters of cells were then dispensed into each well in 384-well plates, where 200 nL of compound in 100% DMSO was already present. Following 6 hours incubation at 37° C., 5% CO2, the luciferase activity was determined by adding 15 μL of Steady Lite Plus substrate (Perkin Elmer) to each well and readout performed on a ViewLux ultraHTS microplate imager (Perkin Elmer). Dose response curves were generated from measurements performed in quadruplicates. Lowest effective concentrations (LEC) values, defined as the concentration that induces an effect which is at least two fold above the standard deviation of the assay, were determined for each compound.
# [1] = test system: interferon-stimulated responsive elements (ISRE); assay: Activation of ISRE promoter elements by conditioned media from PBMC (HEK-ISREluc); conditions: Homo sapiens; PBMC overnight incubation, supernatant on HEK-ISREluc cells 24 hours; lowest effective concentration; read-out: HEK-ISRE luc (LEC)
# Protocol: The potential of compounds to induce IFN-I was also evaluated by measuring the activation of interferon-stimulated responsive elements (ISRE) by conditioned media from PBMC. The ISRE element of sequence GAAACTGAAACT (SEQ ID NO: 1) is highly responsive to the STAT1-STAT2-1RF9 transcription factor, activated upon binding of IFN-I to their receptor IFNAR (Clontech, PT3372-5W). The plasmid pISRE-Luc from Clontech (ref. 631913) contains 5 copies of this ISRE element, followed by the firefly luciferase ORF. A HEK293 cell line stably transfected with pISRE-Luc (HEK-ISREluc) was established to profile the conditioned PBMC cell culture media.
# Briefly, PBMCs were prepared from buffy coats of at least two donors using a standard Ficoll centrifugation protocol. Isolated PBMCs were resuspended in RPMI medium supplemented with 10% human AB serum and 2×10^5 cells/well were dispensed into 384-well plates containing compounds (70 μL total volume). After overnight incubation, 10 μL of supernatant was transferred to 384-well plates containing 5×10^3 HEK-ISREluc cells/well in 30 μL (plated the day before). Following 24 hours of incubation, activation of the ISRE elements was measured by assaying luciferase activity using 40 μL/well Steady Lite Plus substrate (Perkin Elmer) and measured with ViewLux ultraHTS microplate imager (Perkin Elmer). The stimulating activity of each compound on the HEK-ISREluc cells was reported as LEC value, defined as the compound concentration applied to the PBMCs resulting in a luciferase activity at least two fold above the standard deviation of the assay. The LEC in turn indicates the degree of ISRE activation on transfer of a defined amount of PBMC culture medium. Recombinant interferon α-2a (Roferon-A) was used as a standard control compound.
# human TLR8 = target: T2, human TLR8 (Homo sapiens, UniProt Q9NR97); assay: TLR8 cellular reporter assay (HEK293, NFκB-luc); conditions: HEK293 transiently transfected with TLR8 and NFκB-luc; 6 hours incubation; lowest effective concentration
# T2 construct: expressed in transfected cells; host or cells: HEK293 (transient transfection)
# T2 sequence (Q9NR97 27-1041): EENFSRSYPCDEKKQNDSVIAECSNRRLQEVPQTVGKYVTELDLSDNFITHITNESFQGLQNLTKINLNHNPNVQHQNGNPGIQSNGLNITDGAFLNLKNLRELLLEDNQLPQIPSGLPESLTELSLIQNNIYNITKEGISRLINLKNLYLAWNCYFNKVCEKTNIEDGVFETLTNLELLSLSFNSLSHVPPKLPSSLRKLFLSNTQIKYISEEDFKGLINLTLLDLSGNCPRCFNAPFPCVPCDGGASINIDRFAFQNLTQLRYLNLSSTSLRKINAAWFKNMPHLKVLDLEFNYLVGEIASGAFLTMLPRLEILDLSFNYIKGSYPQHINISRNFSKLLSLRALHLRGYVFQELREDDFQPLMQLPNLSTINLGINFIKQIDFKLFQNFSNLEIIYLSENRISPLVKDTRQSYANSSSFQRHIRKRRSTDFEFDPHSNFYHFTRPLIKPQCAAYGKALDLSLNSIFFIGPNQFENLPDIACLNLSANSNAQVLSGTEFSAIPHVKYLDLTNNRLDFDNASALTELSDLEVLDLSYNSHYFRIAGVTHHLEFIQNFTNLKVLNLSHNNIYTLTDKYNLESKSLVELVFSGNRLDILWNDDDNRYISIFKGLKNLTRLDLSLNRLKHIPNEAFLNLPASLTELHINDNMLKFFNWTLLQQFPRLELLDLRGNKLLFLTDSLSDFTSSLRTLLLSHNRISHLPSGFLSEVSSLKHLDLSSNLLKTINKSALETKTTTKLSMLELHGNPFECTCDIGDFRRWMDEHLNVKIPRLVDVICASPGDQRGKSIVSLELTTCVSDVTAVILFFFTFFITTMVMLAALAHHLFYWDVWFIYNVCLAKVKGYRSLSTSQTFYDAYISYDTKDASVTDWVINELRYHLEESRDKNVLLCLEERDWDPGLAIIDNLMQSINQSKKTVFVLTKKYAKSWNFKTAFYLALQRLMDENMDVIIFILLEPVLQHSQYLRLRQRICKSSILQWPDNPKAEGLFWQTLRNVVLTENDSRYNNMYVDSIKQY
# Protocol: as §1, §2
Human TLR 7 (LEC) (human TLR7),Human TLR 8 (LEC) (human TLR8),Structure (SMILES),minimal effective concentration [1]
1.0 µM,16 µM,CCCCC(C)Nc1nc(N)ncc1Cn1ccccc1=O (stereo not drawn) [Compound 10],0.3 µM
1.8 µM,7.3 µM,CCCCNc1nc(N)ncc1Cn1ccccc1=O [Compound 1],0.7 µM
1.2 µM,6.9 µM,CCCCNc1nc(N)ncc1Cn1cccc(F)c1=O [Compound 6],0.5 µM
1.1 µM,2.1 µM,CCCCNc1nc(N)ncc1Cn1c(C)cccc1=O [Compound 2],0.8 µM
7.3 µM,>25 µM,CCCCCCNc1nc(N)ncc1Cn1ccccc1=O [Compound 9],3 µM
0.8 µM,10.3 µM,CCCCNc1nc(N)ncc1Cn1cc(C)ccc1=O [Compound 3],0.3 µM
1.5 µM,>25 µM,CCCCCNc1nc(N)ncc1Cn1ccccc1=O [Compound 8],0.6 µM
0.5 µM,6.8 µM,CCCCNc1nc(N)ncc1Cn1ccc(C(F)(F)F)cc1=O [Compound 7],0.5 µM
1.3 µM,14.6 µM,CCCC(C)Nc1nc(N)ncc1Cn1ccccc1=O (stereo not drawn) [Compound 11],0.3 µM
0.9 µM,2.7 µM,CCCCNc1nc(N)ncc1Cn1c(=O)ccc2ccccc21 [Compound 5],0.04 µM
0.5 µM,2.2 µM,CCCCNc1nc(N)ncc1Cn1ccc(C)cc1=O [Compound 4],0.5 µM
